Source: PubChem BioAssay AID2060891 (Molecular Pharmacology Branch, DTP, NCI, 2025)
pIC50: −log10 of the molar value.

System: K98450-129-R-PDC complex spheroid growth, percent test/control
Assay: Anticancer human tumor K98450-129-R-PDC patient-derived colon adenocarcinoma cell line growth inhibition [RAS]
Conditions: for pIC50: curve of first compound; for viability, T/C: stronger effect = lower value
Method in brief: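 Tumour cells grown as complex spheroids with HUVEC endothelial cells and mesenchymal stem cells, treated with RAS pathway inhibitor combinations. Each agent spans half-log steps from near clinical Cmax, or 10 microM where Cmax is unknown.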

[1] = second compound 0.00316 µM, first compound 0.0316 µM
[2] = second compound 0.00316 µM, first compound 0.1 µM
[3] = second compound 0.00316 µM, first compound 0.316 µM
[4] = second compound 0.00316 µM, first compound 1 µM
[5] = second compound 0.00316 µM, first compound 3.16 µM
[6] = second compound 0.00316 µM, first compound 10 µM
[7] = second compound 0.01 µM, first compound 0.0316 µM
[8] = second compound 0.01 µM, first compound 0.1 µM
[9] = second compound 0.01 µM, first compound 0.316 µM
[10] = second compound 0.01 µM, first compound 1 µM
[11] = second compound 0.01 µM, first compound 3.16 µM
[12] = second compound 0.01 µM, first compound 10 µM
[13] = second compound 0.0316 µM, first compound 0.0316 µM
[14] = second compound 0.0316 µM, first compound 0.1 µM
[15] = second compound 0.0316 µM, first compound 0.316 µM
[16] = second compound 0.0316 µM, first compound 1 µM
[17] = second compound 0.0316 µM, first compound 3.16 µM
[18] = second compound 0.0316 µM, first compound 10 µM
[19] = second compound 0.1 µM, first compound 0.0316 µM
[20] = second compound 0.1 µM, first compound 0.1 µM
[21] = second compound 0.1 µM, first compound 0.316 µM
[22] = second compound 0.1 µM, first compound 1 µM
[23] = second compound 0.1 µM, first compound 3.16 µM
[24] = second compound 0.1 µM, first compound 10 µM
[25] = second compound 0.316 µM, first compound 0.0316 µM
[26] = second compound 0.316 µM, first compound 0.1 µM
[27] = second compound 0.316 µM, first compound 0.316 µM
[28] = second compound 0.316 µM, first compound 1 µM
[29] = second compound 0.316 µM, first compound 3.16 µM
[30] = second compound 0.316 µM, first compound 10 µM
[31] = second compound 1 µM, first compound 0.0316 µM
[32] = second compound 1 µM, first compound 0.1 µM
[33] = second compound 1 µM, first compound 0.316 µM
[34] = second compound 1 µM, first compound 1 µM
[35] = second compound 1 µM, first compound 3.16 µM
[36] = second compound 1 µM, first compound 10 µM
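Further: spheroids exposed to agents for seven days before the viability readout.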
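Wherever viability, T/C is given: luminescence used as a proxy for viable cell amount.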

With CC(=O)OC12COC1CC(O)C1(C)C(=O)C(O)C3=C(C)C(OC(=O)C(O)C(NC(=O)OC(C)(C)C)c4ccccc4)CC(O)(C(OC(=O)c4ccccc4)C21)C3(C)C (stereo unspecified) + C=CC(=O)N1CCN(c2nc(OCC3CCCN3C)nc3c(F)c(-c4nc(N)cc(C)c4C(F)(F)F)c(Cl)cc23)C(C)C1 the pIC50 (second compound 0.00316 µM) was 6.57, the pIC50 (second compound 0.01 µM) was 6.65 and the pIC50 (second compound 0.0316 µM) was 6.82. It also gave a pIC50 (second compound 0.1 µM) greater than 7.50, a pIC50 (second compound 0.316 µM) greater than 7.50 and a pIC50 (second compound 1 µM) greater than 7.50. For the same compound, the viability, T/C [1] was 91.4%, the viability, T/C [2] was 83.6% and the viability, T/C [3] was 44.3%. The viability, T/C [4] was 27.3%, the viability, T/C [5] was 23.6% and the viability, T/C [6] was 22.6%. It also gave a viability, T/C [7] of 88.2%, a viability, T/C [8] of 83.1% and a viability, T/C [9] of 35.4%. It also gave a viability, T/C [10] of 22.8%, a viability, T/C [11] of 20.8% and a viability, T/C [12] of 19.8%. It also gave a viability, T/C [13] of 71.7%, a viability, T/C [14] of 62.4% and a viability, T/C [15] of 27.7%. For the same compound, the viability, T/C [16] was 17.4%, the viability, T/C [17] was 16.7% and the viability, T/C [18] was 15.6%. For the same compound, the viability, T/C [19] was 50%, the viability, T/C [20] was 38.4% and the viability, T/C [21] was 16.3%. It also gave a viability, T/C [22] of 14.6%, a viability, T/C [23] of 14% and a viability, T/C [24] of 14.3%. The viability, T/C [25] was 35.4%, the viability, T/C [26] was 26.4% and the viability, T/C [27] was 14%. The viability, T/C [28] was 12.4%, the viability, T/C [29] was 12.4% and the viability, T/C [30] was 12.2%. It also gave a viability, T/C [31] of 26.3%, a viability, T/C [32] of 18.5% and a viability, T/C [33] of 13.7%. For the same compound, the viability, T/C [34] was 12.7%, the viability, T/C [35] was 12.4% and the viability, T/C [36] was 13.4%.

NC1c2ccccc2OC12CCN(c1cnc3c(N4CCCc5ncccc54)n[nH]c3n1)CC2 (stereo unspecified) + C=CC(=O)N1CCN(c2nc(OCC3CCCN3C)nc3c(F)c(-c4nc(N)cc(C)c4C(F)(F)F)c(Cl)cc23)C(C)C1 was tested, and the pIC50 (second compound 0.00316 µM) was 7.23, the pIC50 (second compound 0.01 µM) was greater than 7.50 and the pIC50 (second compound 0.0316 µM) was greater than 7.50. It also gave a pIC50 (second compound 0.1 µM) greater than 7.50, a pIC50 (second compound 0.316 µM) greater than 7.50 and a pIC50 (second compound 1 µM) greater than 7.50. For the same compound, the viability, T/C [1] was 71.8%, the viability, T/C [2] was 31.1% and the viability, T/C [3] was 8.4%. For the same compound, the viability, T/C [4] was 7.7%, the viability, T/C [5] was 6.2% and the viability, T/C [6] was 4.82%. The viability, T/C [7] was 48.1%, the viability, T/C [8] was 13% and the viability, T/C [9] was 7.99%. It also gave a viability, T/C [10] of 7.31%, a viability, T/C [11] of 6.81% and a viability, T/C [12] of 4.84%. The viability, T/C [13] was 16.9%, the viability, T/C [14] was 10.2% and the viability, T/C [15] was 8.19%. It also gave a viability, T/C [16] of 7.23%, a viability, T/C [17] of 5.99% and a viability, T/C [18] of 4.9%. For the same compound, the viability, T/C [19] was 12.3%, the viability, T/C [20] was 8.86% and the viability, T/C [21] was 8.05%. It also gave a viability, T/C [22] of 6.93%, a viability, T/C [23] of 6.33% and a viability, T/C [24] of 4.82%. It also gave a viability, T/C [25] of 10.9%, a viability, T/C [26] of 8.75% and a viability, T/C [27] of 8.02%. For the same compound, the viability, T/C [28] was 6.49%, the viability, T/C [29] was 6.35% and the viability, T/C [30] was 5.02%. For the same compound, the viability, T/C [31] was 10.8%, the viability, T/C [32] was 9.4% and the viability, T/C [33] was 8.01%. It also gave a viability, T/C [34] of 6.8%, a viability, T/C [35] of 6.75% and a viability, T/C [36] of 5.01%.

Work on Nc1ccn(C2OC(CO)C(O)C2(F)F)c(=O)n1 (stereo unspecified) + C=CC(=O)N1CCN(c2nc(OCC3CCCN3C)nc3c(F)c(-c4nc(N)cc(C)c4C(F)(F)F)c(Cl)cc23)C(C)C1 yielded a pIC50 (second compound 0.00316 µM) of 7.24, a pIC50 (second compound 0.01 µM) of 7.47 and a pIC50 (second compound 0.0316 µM) of 7.82. For the same compound, the pIC50 (second compound 0.1 µM) was 8.24, the pIC50 (second compound 0.316 µM) was greater than 8.50 and the pIC50 (second compound 1 µM) was greater than 8.50. It also gave a viability, T/C (second compound 0.00316 µM, first compound 0.00316 µM) of 91.3%, a viability, T/C (second compound 0.00316 µM, first compound 0.01 µM) of 86.3% and a viability, T/C [1] of 59.6%. It also gave a viability, T/C [2] of 40.5%, a viability, T/C [3] of 31.7% and a viability, T/C [4] of 25.8%. For the same compound, the viability, T/C (second compound 0.01 µM, first compound 0.00316 µM) was 91%, the viability, T/C (second compound 0.01 µM, first compound 0.01 µM) was 76.8% and the viability, T/C [7] was 49.1%. It also gave a viability, T/C [8] of 34.8%, a viability, T/C [9] of 28.5% and a viability, T/C [10] of 22.8%. The viability, T/C (second compound 0.0316 µM, first compound 0.00316 µM) was 68.4%, the viability, T/C (second compound 0.0316 µM, first compound 0.01 µM) was 59.5% and the viability, T/C [13] was 34.1%. It also gave a viability, T/C [14] of 22.6%, a viability, T/C [15] of 18.5% and a viability, T/C [16] of 16.3%. It also gave a viability, T/C (second compound 0.1 µM, first compound 0.00316 µM) of 57.5%, a viability, T/C (second compound 0.1 µM, first compound 0.01 µM) of 43% and a viability, T/C [19] of 24.4%. It also gave a viability, T/C [20] of 17.7%, a viability, T/C [21] of 15.2% and a viability, T/C [22] of 14.7%. It also gave a viability, T/C (second compound 0.316 µM, first compound 0.00316 µM) of 41.5%, a viability, T/C (second compound 0.316 µM, first compound 0.01 µM) of 38.6% and a viability, T/C [25] of 21.8%. It also gave a viability, T/C [26] of 16.4%, a viability, T/C [27] of 14.2% and a viability, T/C [28] of 12.8%. For the same compound, the viability, T/C (second compound 1 µM, first compound 0.00316 µM) was 36.2%, the viability, T/C (second compound 1 µM, first compound 0.01 µM) was 25.1% and the viability, T/C [31] was 18.8%. It also gave a viability, T/C [32] of 16.9%, a viability, T/C [33] of 14.3% and a viability, T/C [34] of 14.4%.
